Experimental findings from paper PMC4838876, “Multivalent display of minimal Clostridium difficile glycan epitopes mimics antigenic properties of larger glycans” (Nature Communications, 2016) are described below.

In experiment [1] the target is mAb 10A1 (anti-PS-I IgG1). Nature of the experiment: Kinetic SPR of glycans binding to captured mAb 10A1. Further details: species or system mouse. As to conditions: mAb 10A1, PBS, 25 °C, mean (min;max) n=2. On the procedure:
(§1) Kinetic SPR experiments were performed to determine the binding strengths of the mAbs to PS-I glycans expressed as dissociation constants (KD)[8] (Fig. 5a). […] Overall, the SPR measurements (summarized in Table 1) confirmed results obtained by glycan microarray presented above.
Figure 5 KD values of anti-PS-I mAbs binding to 1 and 3 inferred by SPR. (a) mAbs were captured with an anti-mouse IgG antibody immobilized on the SPR sensor surface. Glycan antigens were passed over the surface to monitor changes in the response unit signals. (b,c) Representative sensorgrams showing reference-subtracted binding signals to 1 (b) and 3 (c). KD values were calculated by fitting the curves to a 1:1 Langmuir binding model (black overlaid curves) or with a steady-state affinity model (response units versus concentration plots). Indicated KD values are mean±s.e.m. of n=3 or mean with minimum and maximum values in parentheses of n=2 independent experiments. See Supplementary Figs 3–5 for details.
Binding analyses were carried out on a Biacore T100 instrument (GE Healthcare). […] The fitting quality was evaluated by investigating respective residual plots, χ^2 and s.e. values for on- and off-rates. […]

Experiment [2] has as its target mAb 10D6 (anti-PS-I IgG1). The experiment in a line: Kinetic SPR of glycans binding to captured mAb 10D6. The note with it: mAb 10D6, PBS, 25 °C, mean±s.e.m. n=3 or mean (min;max) n=2. Further details: species or system mouse. On the procedure:
as §1
Binding analyses were carried out on a Biacore T100 instrument (GE Healthcare). CM5 sensor chips were functionalized with about 10,000 RUs of α-mouse IgG capture antibody, using the Mouse Antibody Capture Kit and the Amine Coupling Kit (GE Healthcare) according to the manufacturer's recommendations. A blank-immobilized flow cell was used as reference, to compensate for nonspecific binding of antibodies or oligosaccharides to the sensor chip surface. Kinetic measurements were performed with the Biacore T100 Control software using the ‘Kinetics' function. PBS was used as running buffer and all measurements were performed at 25 °C and a flow rate of 30 μl min^−1. About 500 RUs of mAbs were captured at a concentration of 50 μg ml^−1 diluted in PBS and oligosaccharides or OAAs (in PBS) at the indicated concentrations were passed through, using the standard parameters for association and dissociation times unless mentioned otherwise. […] The fitting quality was evaluated by investigating respective residual plots, χ^2 and s.e. values for on- and off-rates. […]
All sensorgrams were recorded on a Biacore T100 instrument (GE […]

What is called Kd is the concentration at which binding is half-saturated. A lower Kd goes with tighter binding. `C[C@@H]1O[C@@H](O[C@@H]2[C@@H](O)[C@H](O[C@H]3[C@H](O[C@@H]4O[C@@H](C)[C@H](O)[C@@H](O)[C@H]4O)[C@@H](O)[C@@H](O[C@H]4[C@@H](OCCCCCN)O[C@H](CO)[C@@H](O)[C@@H]4O)O[C@@H]3CO)O[C@H](CO)[C@H]2O)[C@H](O)[C@H](O)[C@H]1O` [Compound 1]: the Kd in experiment [1] was found to be 0.245 µM; in experiment [2] it was 0.169 µM.

Consider `C[C@@H]1O[C@@H](O[C@@H]2[C@@H](O)[C@H](OCCCCCN)O[C@H](CO)[C@H]2O)[C@H](O)[C@H](O)[C@H]1O` [Compound 3, Rha-(1→3)-Glc], for which the results for the Kd in experiment [1] and in experiment [2] were 5.9 µM and 37.5 ± 0.4 µM, respectively.
